Assay results taken from BindingDB's records for patent US9175357 (University of South Carolina, 2015).

Biological target: Serine/threonine-protein kinase PLK1 (Homo sapiens, UniProt P53350)
Test: Fluorescent Polarization Binding Assay
Details: pH 8; 25 °C

Serine/threonine-protein kinase PLK1, sequence (P53350 whole entry): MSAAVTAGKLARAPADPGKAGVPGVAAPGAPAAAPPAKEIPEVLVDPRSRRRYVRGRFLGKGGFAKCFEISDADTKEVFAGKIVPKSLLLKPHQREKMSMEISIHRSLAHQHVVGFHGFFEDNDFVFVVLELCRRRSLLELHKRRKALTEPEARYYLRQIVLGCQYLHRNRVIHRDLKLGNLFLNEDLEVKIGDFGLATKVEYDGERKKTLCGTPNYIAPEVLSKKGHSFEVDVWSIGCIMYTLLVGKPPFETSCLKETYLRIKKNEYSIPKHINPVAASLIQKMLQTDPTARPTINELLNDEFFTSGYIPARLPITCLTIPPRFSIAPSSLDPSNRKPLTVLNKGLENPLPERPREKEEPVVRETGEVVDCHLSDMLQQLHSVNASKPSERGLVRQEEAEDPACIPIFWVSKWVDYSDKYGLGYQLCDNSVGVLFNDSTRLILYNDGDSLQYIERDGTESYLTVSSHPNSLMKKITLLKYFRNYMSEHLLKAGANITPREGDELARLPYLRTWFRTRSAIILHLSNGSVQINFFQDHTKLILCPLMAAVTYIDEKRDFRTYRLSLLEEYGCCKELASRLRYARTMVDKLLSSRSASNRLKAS

- IC50: 550 µM
Structure (SMILES): CNC(=O)c1cc(CCCN2CCOCC2)n(-c2ccccc2)c1C [US9175357, 5600]
